Data published in patent publication US20250368649A1, “TETRAHYDROPYRIDOPYRIMIDINE PAN-KRAS INHIBITORS” (Mirati Therapeutics, Inc., priority 2022, published 2025).

Experiments:
[1] = molecular target: KRas G12V (Homo sapiens, UniProt P01116, G12V); assay: biochemical; conditions: Binding to KRas (IC50 nM) G12V, TR-FRET displacement, KRas G12V
[2] = system: A549 cells; assay: Inhibition of KRas-mediated phosphorylation of ERK (Cisbio HTRF pERK), A549 cells; format: cell-based; conditions: Homo sapiens; for inhibition at 0.1 µM: single point at 100 nM, 3 hrs compound incubation
[3] = system: H358 cells; assay: Inhibition of KRas-mediated phosphorylation of ERK (Cisbio HTRF pERK), H358 cells; format: cell-based; conditions: Homo sapiens; for inhibition at 0.1 µM: NCI-H358, single point at 100 nM, 3 hrs compound incubation
[4] = system: H460 cells; assay: Inhibition of KRas-mediated phosphorylation of ERK (Cisbio HTRF pERK), H460 cells; format: cell-based; conditions: Homo sapiens; for inhibition at 0.1 µM: NCI-H460, single point at 100 nM, 3 hrs compound incubation
[5] = molecular target: KRas G12D (Homo sapiens, UniProt P01116, G12D); assay: biochemical; conditions: Binding to KRas (IC50 nM) G12D, TR-FRET displacement, KRas G12D
KRas G12D, sequence (P01116 1-169 isoform P01116-2 G12D): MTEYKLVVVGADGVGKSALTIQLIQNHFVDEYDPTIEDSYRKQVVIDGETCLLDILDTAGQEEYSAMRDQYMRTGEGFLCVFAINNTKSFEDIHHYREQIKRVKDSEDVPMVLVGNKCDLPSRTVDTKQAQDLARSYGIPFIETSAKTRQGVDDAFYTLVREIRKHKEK

[6] = system: ASPC1 cells; assay: Inhibition of KRas-mediated phosphorylation of ERK (Cisbio HTRF pERK), ASPC1 cells; format: cell-based; conditions: Homo sapiens, AsPC-1 cells; for IC50: ASPC1, 3 h, 3 hr compound incubation, Cisbio pERK HTRF; for inhibition at 0.1 µM: ASPC1, single point at 100 nM, 3 hrs compound incubation
[7] = molecular target: KRas G12R (Homo sapiens, UniProt P01116, G12R); assay: biochemical; conditions: Binding to KRas (IC50 nM) G12R, TR-FRET displacement, KRas G12R
KRas G12R, sequence (P01116 1-169 isoform P01116-2 G12R): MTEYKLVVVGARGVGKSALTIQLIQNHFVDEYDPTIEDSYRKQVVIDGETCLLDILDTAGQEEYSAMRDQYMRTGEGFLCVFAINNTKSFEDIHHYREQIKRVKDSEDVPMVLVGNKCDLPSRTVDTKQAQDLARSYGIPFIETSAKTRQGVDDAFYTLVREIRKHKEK

[8] = system: H727 cells; assay: Inhibition of KRas-mediated phosphorylation of ERK (Cisbio HTRF pERK), H727 cells; format: cell-based; conditions: Homo sapiens; for IC50: NCI-H727, 3 h, 3 hr compound incubation, Cisbio pERK HTRF; for inhibition at 0.1 µM: NCI-H727, single point at 100 nM, 3 hrs compound incubation
[9] = system: HCT116 cells; assay: Inhibition of KRas-mediated phosphorylation of ERK (Cisbio HTRF pERK), HCT116 cells; format: cell-based; conditions: Homo sapiens; for inhibition at 0.1 µM: HCT-116, single point at 100 nM, 3 hrs compound incubation

KRas G12V, sequence (P01116 1-169 isoform P01116-2 G12V): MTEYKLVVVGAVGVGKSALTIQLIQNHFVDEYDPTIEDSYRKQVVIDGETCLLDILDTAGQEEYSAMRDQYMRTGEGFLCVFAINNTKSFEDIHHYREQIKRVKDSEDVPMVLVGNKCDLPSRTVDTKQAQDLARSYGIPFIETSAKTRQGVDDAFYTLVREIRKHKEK

IC50 [1] [nM]	IC50 [5] [nM]	IC50 [6] [nM]	IC50 [7] [nM]	IC50 [8] [nM]	IC50 ([2]; A549, 3 h, 3 hr compound incubation, Cisbio pERK HTRF) [nM]	IC50 ([3]; NCI-H358, 3 h, 3 hr compound incubation, Cisbio pERK HTRF) [nM]	IC50 ([4]; NCI-H460, 3 h, 3 hr compound incubation, Cisbio pERK HTRF) [nM]	IC50 ([9]; HCT-116, 3 h, 3 hr compound incubation, Cisbio pERK HTRF) [nM]	SMILES	inhibition at 0.1 µM [2] [%]	inhibition at 0.1 µM [3] [%]	inhibition at 0.1 µM [4] [%]	inhibition at 0.1 µM [6] [%]	inhibition at 0.1 µM [8] [%]	inhibition at 0.1 µM [9] [%]
10	19	283	9	763	–	–	–	–	CCc1c(F)ccc2cc(O)cc(N3CCc4c(nc(OC[C@@]56CCCN5C[C@H](F)C6)nc4N4CCCC5(C4)NC(=O)NC5=S)C3)c12 (stereo partly drawn) [Example 250, 7-(7-(8-ethyl-7-fluoro-3-hydroxynaphthalen-1-yl)-2-(((2R,7aS)-2-fluorohexahydro-1H-pyrrolizin-7a-yl)methoxy)-5,6,7,8-tetrahydropyrido[3,4-d]pyrimidin-4-yl)-4-thioxo-1,3,7-triazaspiro[4.5]decan-2-one]	36	34	36	-2	25	26
5	7	1310	3	1200	–	–	–	–	CCc1c(F)ccc2cc(O)cc(N3CCc4c(nc(OC[C@@]56CCCN5C[C@H](F)C6)nc4N4CCCCC(COCC(=O)N(C)C)C4)C3)c12 (stereo partly drawn) [Example 251, 2-((1-(7-(8-ethyl-7-fluoro-3-hydroxynaphthalen-1-yl)-2-(((2R,7aS)-2-fluorohexahydro-1H-pyrrolizin-7a-yl)methoxy)-5,6,7,8-tetrahydropyrido[3,4-d]pyrimidin-4-yl)azepan-3-yl)methoxy)-N,N-dimethylacetamide]	21	2	15	-4	3	-7
11	23	1950	7	1740	–	–	–	–	CCc1c(F)ccc2cc(O)cc(N3CCc4c(nc(OC[C@@]56CCCN5C[C@H](F)C6)nc4N4CCCCC(COC(C)C(=O)N(C)C)C4)C3)c12 (stereo partly drawn) [Example 252, 2-((1-(7-(8-ethyl-7-fluoro-3-hydroxynaphthalen-1-yl)-2-(((2R,7aS)-2-fluorohexahydro-1H-pyrrolizin-7a-yl)methoxy)-5,6,7,8-tetrahydropyrido[3,4-d]pyrimidin-4-yl)azepan-3-yl)methoxy)-N,N-dimethylpropanamide]	16	-7	3	-5	0	14
7	38	2400	25	747	–	–	–	–	CCc1c(F)ccc2cc(O)cc(N3CCc4c(nc(OC[C@@]56CCCN5C[C@H](F)C6)nc4N4CCCCC(C(=O)N(C)C)C4)C3)c12 (stereo partly drawn) [Example 313, 1-(7-(8-ethyl-7-fluoro-3-hydroxynaphthalen-1-yl)-2-(((2R,7aS)-2-fluorohexahydro-1H-pyrrolizin-7a-yl)methoxy)-5,6,7,8-tetrahydropyrido[3,4-d]pyrimidin-4-yl)-N,N-dimethylazepane-3-carboxamide]	7	8	31	–	–	2
3	10	803	7	406	–	–	–	–	CCc1c(F)ccc2cc(O)cc(N3CCc4c(nc(OC[C@@]56CCCN5C[C@H](F)C6)nc4N4CCCCC(C(=O)NC)C4)C3)c12 (stereo partly drawn) [Example 314, 1-(7-(8-ethyl-7-fluoro-3-hydroxynaphthalen-1-yl)-2-(((2R,7aS)-2-fluorohexahydro-1H-pyrrolizin-7a-yl)methoxy)-5,6,7,8-tetrahydropyrido[3,4-d]pyrimidin-4-yl)-N-methylazepane-3-carboxamide]	3	0	13	–	–	4
3	9	1300	5	681	–	–	–	–	CCc1c(F)ccc2cc(O)cc(N3CCc4c(nc(OC[C@@]56CCCN5C[C@H](F)C6)nc4N4CCCCC(C(N)=O)C4)C3)c12 (stereo partly drawn) [Example 315, 1-(7-(8-ethyl-7-fluoro-3-hydroxynaphthalen-1-yl)-2-(((2R,7aS)-2-fluorohexahydro-1H-pyrrolizin-7a-yl)methoxy)-5,6,7,8-tetrahydropyrido[3,4-d]pyrimidin-4-yl)azepane-3-carboxamide]	-26	11	4	–	–	2
5	6	879	6	687	1390	536	1770	3140	CCc1c(F)ccc2cc(O)cc(N3CCc4c(nc(OC[C@@]56CCCN5C[C@H](F)C6)nc4N4CCCn5nc(CCCC(=O)N(C)C)cc5C4)C3)c12 [Example 316, 4-(5-(7-(8-ethyl-7-fluoro-3-hydroxynaphthalen-1-yl)-2-(((2R,7aS)-2-fluorohexahydro-1H-pyrrolizin-7a-yl)methoxy)-5,6,7,8-tetrahydropyrido[3,4-d]pyrimidin-4-yl)-5,6,7,8-tetrahydro-4H-pyrazolo[1,5-a][1,4]diazepin-2-yl)-N,N-dimethylbutanamide]	-4	-22	-20	–	–	-2
171	69	1900	146	1920	–	–	–	–	CCc1c(F)ccc2cc(O)cc(N3CCc4c(nc(OC[C@@]56CCCN5C[C@H](F)C6)nc4N4CCCn5nc(N(C)S(=O)(=O)C(C)C)cc5C4)C3)c12 [Example 321, N-(5-(7-(8-ethyl-7-fluoro-3-hydroxynaphthalen-1-yl)-2-(((2R,7aS)-2-fluorohexahydro-1H-pyrrolizin-7a-yl)methoxy)-5,6,7,8-tetrahydropyrido[3,4-d]pyrimidin-4-yl)-5,6,7,8-tetrahydro-4H-pyrazolo[1,5-a][1,4]diazepin-2-yl)-N-methylpropane-2-sulfonamide]	14	7	16	–	–	5
6	2	830	4	1180	–	–	–	–	CCc1c(F)ccc2cc(O)cc(N3CCc4c(nc(OC[C@@]56CCCN5C[C@H](F)C6)nc4N4CCCn5nc(CNS(=O)(=O)NC)cc5C4)C3)c12 [Example 324, 7-(8-ethyl-7-fluoro-3-hydroxy-1-naphthyl)-2-(((2R,7aS)-2-fluorotetrahydro-1H-pyrrolizin-7a(5H)-yl)methoxy)-4-(2-((methylsulfamoyl)amino)methyl-7,8-dihydro-4H-pyrazolo[1,5-a][1,4]diazepin-5(6H)-yl)-6,8-dihydro-5H-pyrido[3,4-d]pyrimidine]	11	4	21	–	–	-1
50	12	999	43	1690	–	–	–	–	CCc1c(F)ccc2cc(O)cc(N3CCc4c(nc(OC[C@@]56CCCN5C[C@H](F)C6)nc4N4CCCn5nc(N(C)S(C)(=O)=O)cc5C4)C3)c12 [Example 334, N-(5-(7-(8-ethyl-7-fluoro-3-hydroxynaphthalen-1-yl)-2-(((2R,7aS)-2-fluorohexahydro-1H-pyrrolizin-7a-yl)methoxy)-5,6,7,8-tetrahydropyrido[3,4-d]pyrimidin-4-yl)-5,6,7,8-tetrahydro-4H-pyrazolo[1,5-a][1,4]diazepin-2-yl)-N-methylmethanesulfonamide]	12	2	-1	–	–	12
44	29	779	32	656	–	–	–	–	CCc1c(F)ccc2cc(O)cc(N3CCc4c(nc(OC[C@@]56CCCN5C[C@H](F)C6)nc4N4CCCn5nc(N(C)C(=O)C(C)C)cc5C4)C3)c12 [Example 335, N-(5-(7-(8-ethyl-7-fluoro-3-hydroxynaphthalen-1-yl)-2-(((2R,7aS)-2-fluorohexahydro-1H-pyrrolizin-7a-yl)methoxy)-5,6,7,8-tetrahydropyrido[3,4-d]pyrimidin-4-yl)-5,6,7,8-tetrahydro-4H-pyrazolo[1,5-a][1,4]diazepin-2-yl)-N-methylisobutyramide]	13	0	10	–	–	15
